Measured values as given in US20250275991A1, “ORAL COMPLEMENT FACTOR D INHIBITORS” (BioCryst Pharmaceuticals, Inc, priority 2019, published 2025).
pIC50: −log10 of the molar value.

Molecular target: Factor D (Homo sapiens, UniProt P00746)
Test: Factor D esterolytic assay
Assay type: biochemical
Conditions: substrate Z-Lys-SBzl 1.29 mM, 100 mM HEPES, 500 mM NaCl, pH 7.5, 10% DMSO, tested a minimum of three times
Protocol: The IC50 value of a compound (i.e., the concentration of the compound that inhibits 50% of the enzymatic activity) was calculated according to the procedure reported in U.S. Pat. No. 6,653,340 B1, e.g., column 74 (incorporated by reference).
Specifically, the compounds were dissolved in a stock solution of DMSO at 10.0 or 100 mM. A portion of this stock solution was added to assay buffer in a final volume of 50 μL. Controls included buffer alone and enzyme solutions to which DMSO was added. Substrate was added to the reaction wells immediately or after incubation at room temperature. The reaction rates were measured spectrophotometrically by the generation of product at 405 nm for 600 sec. Background absorbance at 690 nm was measured and subtracted from the absorbance at 405 nm for each well.
The reaction rate for enzyme alone was compared to the rate of enzyme in the presence of inhibitor and the percent inhibition was calculated as shown below: […]
An established esterolytic assay for the measurement of Factor D activity and inhibition of Factor D activity was used (Kam, C. M.; McRae, B. J.; Harper, J. W.; Niemann, M. A.; Volanakis, J. E.; Powers, J. C. Human complement proteins D, C2, and B Active site mapping with peptide thioester substrates. J Biol. Chem. 1987, 262, 3444-3451). For this assay Z-Lys-SBzl, 1.29 mM (Kim, S.; Narayana, S. V. L; Volanakis, J. E. Mutational analysis of the substrate binding site of human complement Factor D. Biochemistry. 1994, 33, 14393-14399.) was used as the substrate for Factor D ([…]). Hydrolysis of this compound by Factor D liberated a free sulfhydryl group which is then reacted with 5,5′-dithiobis(2nitrobenzoic acid) producing an intense yellow color (Habeeb, A. F. S. A. Reaction of protein sulfhydryl groups with Ellman's Reagent. Methods in Enzymol. 1976, 25, 457-464). The assays were performed in 96 well microtiter plates and rates of hydrolysis were monitored at 405 nm on a Biotek Synergy H1 plate reader. Hydrolysis rates were reported as change in mOD/min. The assay was conducted in 100 mM HEPES, 500 mM NaCl, pH 7.5 containing 10% DMSO in a final volume of 50 μL per well.
An IC50, a compound concentration which inhibits 50% of the enzymatic activity, was calculated. Compounds in the examples were tested a minimum of three times.

Chain of Factor D (P00746 26-253): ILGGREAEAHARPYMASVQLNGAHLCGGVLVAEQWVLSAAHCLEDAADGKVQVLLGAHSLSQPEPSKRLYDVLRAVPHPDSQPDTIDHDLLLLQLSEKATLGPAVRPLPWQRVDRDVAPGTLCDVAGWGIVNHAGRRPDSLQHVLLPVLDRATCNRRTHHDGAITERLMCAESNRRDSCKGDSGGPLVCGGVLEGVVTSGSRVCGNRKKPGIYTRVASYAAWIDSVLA

NCc1cccc(-c2cc(COc3ccc(F)cc3CC(=O)O)cc3cc(F)oc23)c1F [Compound 18c, 2-(2-((7-(3-(aminomethyl)-2-fluorophenyl)-2-fluorobenzofuran-5-yl)methoxy)-5-fluorophenyl)acetic acid]
pIC50: > 6.00

COC(=O)Nc1ccc(CC(=O)O)c(OCc2cc(-c3cccc(CN)c3)c3occc3c2)c1 [Compound 19i, 2-(2-((7-(3-(aminomethyl)phenyl)benzofuran-5-yl)methoxy)-4-((methoxycarbonyl)amino)phenyl)acetic acid]
pIC50: > 6.00

CC(C)OC(=O)Nc1ccc(CC(=O)O)c(OCc2cc(-c3cccc(CN)c3)c3occc3c2)c1 [Compound 20h, 2-(2-((7-(3-(aminomethyl)phenyl)benzofuran-5-yl)methoxy)-4-((isopropoxycarbonyl)amino)phenyl)acetic acid]
pIC50: > 6.00

CCNCc1cccc(-c2cc(COc3ccccc3CC(=O)O)cc3ccoc23)c1 [Compound 21c, 2-(2-((7-(3-((ethylamino)methyl)phenyl)benzofuran-5-yl)methoxy)phenyl)acetic acid]
pIC50: > 6.00

Cc1ccc(CC(=O)O)c(OCc2cc(-c3ccnc(CN)c3)c3occc3c2)c1C [Compound 22h, 2-(2-((7-(2-(aminomethyl)pyridin-4-yl)benzofuran-5-yl)methoxy)-3,4-dimethylphenyl)acetic acid]
pIC50: > 6.00

CC(=O)OCc1cc2cc(COc3ccccc3CC(=O)O)cc(-c3cccc(CN)c3)c2o1 [Compound 23h, 2-(2-((2-(acetoxymethyl)-7-(3-(aminomethyl)phenyl)benzofuran-5-yl)methoxy)phenyl)acetic acid]
pIC50: > 6.00

CC(C)C(N)C(=O)OCc1cc2cc(COc3ccccc3CC(=O)O)cc(-c3cccc(CN)c3)c2o1 (centres unmarked) [Compound 24b, 2-(2-((2-(((2-amino-3-methylbutanoyl)oxy)methyl)-7-(3-(aminomethyl)phenyl)benzofuran-5-yl)methoxy)phenyl)acetic acid]
pIC50: > 6.00

CCOC(=O)NCc1cc2cc(COc3ccccc3CC(=O)O)cc(-c3cccc(CN)c3)c2o1 [Compound 25h, 2-(2-((7-(3-(aminomethyl)phenyl)-2-(((ethoxycarbonyl)amino)methyl)benzofuran-5-yl)methoxy)phenyl)acetic acid]
pIC50: > 6.00

CCCCCCC(=O)NCc1ccc(CC(=O)O)c(OCc2cc(-c3cccc(CN)c3)c3occc3c2)c1 [Compound 26f, 2-(2-((7-(3-(aminomethyl)phenyl)benzofuran-5-yl)methoxy)-4-(heptanamidomethyl)phenyl)acetic acid]
pIC50: > 6.00

CC(C)OC(=O)NCc1ccc(CC(=O)O)c(OCc2cc(-c3cccc(CN)c3)c3occc3c2)c1 [Compound 27c, 2-(2-((7-(3-(aminomethyl)phenyl)benzofuran-5-yl)methoxy)-4-((isopropoxycarbonylamino)methyl)phenyl)acetic acid]
pIC50: > 6.00

CC(C)CC(=O)NCc1ccc(CC(=O)O)c(OCc2cc(-c3cccc(CN)c3)c3occc3c2)c1 [Compound 28c, 2-(2-((7-(3-(aminomethyl)phenyl)benzofuran-5-yl)methoxy)-4-((3-methylbutanamido)methyl)phenyl)acetic acid]
pIC50: > 6.00

CCOC(=O)NCc1ccc(CC(=O)O)c(OCc2cc(-c3cccc(CN)c3)c3occc3c2)c1 [Compound 29c, 2-(2-((7-(3-(aminomethyl)phenyl)benzofuran-5-yl)methoxy)-4-((ethoxycarbonylamino)methyl)phenyl)acetic acid]
pIC50: > 6.00

CC(=O)NCc1ccc(CC(=O)O)c(OCc2cc(-c3cccc(CN)c3)c3occc3c2)c1 [Compound 30c, 2-(4-(acetamidomethyl)-2-((7-(3-(aminomethyl)phenyl)benzofuran-5-yl)methoxy)phenyl)acetic acid]
pIC50: > 6.00

NCc1cccc(-c2cc(COc3cc(CN)ccc3CC(=O)O)cc3c(C(F)(F)F)coc23)c1 [Compound 31d, 2-(4-(aminomethyl)-2-((7-(3-(aminomethyl)phenyl)-3-(trifluoromethyl)benzofuran-5-yl)methoxy)phenyl)acetic acid]
pIC50: > 6.00

CCOP(=O)(NCc1ccc(CC(=O)O)c(OCc2cc(-c3cccc(CN)c3)c3occc3c2)c1)OCC [Compound 32c, 2-(2-((7-(3-(aminomethyl)phenyl)benzofuran-5-yl)methoxy)-4-((diethoxyphosphorylamino)methyl)phenyl)acetic acid]
pIC50: > 6.00

CS(=O)(=O)NCc1ccc(CC(=O)O)c(OCc2cc(-c3cccc(CN)c3)c3occc3c2)c1 [Compound 33c, 2-(2-((7-(3-(aminomethyl)phenyl)benzofuran-5-yl)methoxy)-4-(methylsulfonamidomethyl)phenyl)acetic acid]
pIC50: > 6.00

NCc1cccc(-c2cc(COc3cc(CNP(=O)(OCc4ccccc4)OCc4ccccc4)ccc3CC(=O)O)cc3ccoc23)c1 [Compound 34c, 2-(2-((7-(3-(aminomethyl)phenyl)benzofuran-5-yl)methoxy)-4-((bis(benzyloxy)phosphorylamino)methyl)phenyl)acetic acid]
pIC50: > 6.00

NCc1cccc(-c2cc(C(Oc3ccccc3CC(=O)O)C(=O)O)cc3ccoc23)c1 (centres unmarked) [Compound 35e, 2-(7-(3-(aminomethyl)phenyl)benzofuran-5-yl)-2-(2-(carboxymethyl)phenoxy)acetic acid]
pIC50: > 6.00

O=CNCc1nccc(-c2cc(COc3ccccc3CC(=O)O)cc3ccoc23)c1F [Compound 36f, 2-(2-((7-(3-fluoro-2-(formamidomethyl)pyridin-4-yl)benzofuran-5-yl)methoxy)phenyl)acetic acid]
pIC50: > 6.00

CCNCc1nccc(-c2cc(COc3ccccc3CC(=O)O)cc3ccoc23)c1F [Compound 37d, 2-(2-((7-(2-((ethylamino)methyl)-3-fluoropyridin-4-yl)benzofuran-5-yl)methoxy)phenyl)acetic acid]
pIC50: > 6.00

CCC(C(=O)O)c1ccccc1OCc1cc(-c2ccnc(CN)c2F)c2occc2c1 (centres unmarked) [Compound 38c, 2-(2-((7-(2-(aminomethyl)-3-fluoropyridin-4-yl)benzofuran-5-yl)methoxy)phenyl)butanoic acid]
pIC50: > 6.00

CC(C)(C)OC(=O)Cc1ccccc1OCc1cc(-c2ccnc(CN)c2F)c2occc2c1 [Compound 39e, tert-butyl 2-(2-((7-(2-(aminomethyl)-3-fluoropyridin-4-yl)benzofuran-5-yl)methoxy)phenyl)acetate]
pIC50: 5.00 to 6.00

NCc1nccc(-c2cc(COc3ccccc3CC(=O)O)cc3c2OCC3)c1F [Compound 40g, 2-(2-((7-(2-(aminomethyl)-3-fluoropyridin-4-yl)-2,3-dihydrobenzofuran-5-yl)methoxy)phenyl)acetic acid]
pIC50: > 6.00

NC(CC(F)(F)F)c1cccc(-c2cc(COc3ccccc3CC(=O)O)cc3ccoc23)c1 (centres unmarked) [Compound 41e, 2-(2-((7-(3-(1-amino-3,3,3-trifluoropropyl)phenyl)benzofuran-5-yl)methoxy)phenyl)acetic acid]
pIC50: 5.00 to 6.00

COc1ccc(CC(=O)O)c(OCc2cc(-c3cccc(CN)c3F)c3occc3c2F)c1 [Compound 42e, 2-(2-((7-(3-(aminomethyl)-2-fluorophenyl)-4-fluorobenzofuran-5-yl)methoxy)-4-methoxyphenyl)acetic acid]
pIC50: > 6.00

COc1ccc(CC(=O)O)c(OCc2cc(-c3ccnc(CN)c3)c3occc3c2F)c1 [Compound 43d, 2-(2-((7-(2-(aminomethyl)pyridin-4-yl)-4-fluorobenzofuran-5-yl)methoxy)-4-methoxyphenyl)acetic acid]
pIC50: > 6.00
